The source of these data is BindingDB's records for doi:10.1021/jm2017144 (Universidad De Granada, 2012).

This assay has as its target Superoxide dismutase [Cu-Zn], SOD1 (Homo sapiens) (UniProt P00441). Description: Inhibition of human erythrocyte Cu-Zn SOD by NBT reduction assay.

Superoxide dismutase [Cu-Zn], SOD1 (Homo sapiens), sequence (P00441 whole entry, looked up): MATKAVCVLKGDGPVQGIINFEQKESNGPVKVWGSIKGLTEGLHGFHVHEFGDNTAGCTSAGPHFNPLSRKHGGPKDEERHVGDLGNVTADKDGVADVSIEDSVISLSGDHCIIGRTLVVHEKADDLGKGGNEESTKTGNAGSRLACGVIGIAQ

`c1c2n[nH]c1CNCCN1CCNCc3cc(n[nH]3)CNCCN(CCNC2)CCNCc2cc([nH]n2)CNCC1` gave an IC50 of 274 µM.
Compound `Cn1nc2cc1CNCCNCCNCc1cc(n(C)n1)CNCCNCCNC2` returned a half-inhibitory concentration (IC50) of 96.6 µM.
Compound `c1ccc(Cn2nc3cc2CNCCNCCNCc2cc(n(Cc4ccccc4)n2)CNCCNCCNC3)cc1` gave an IC50 of 155 µM.
The compound `CCCCCCCCN1CCNCc2cc([nH]n2)CNCCN(CCCCCCCC)CCNCc2cc(n[nH]2)CNCC1` yielded an IC50 of 89.2 µM.

One may read the IC50 as the concentration that inhibits the measured activity by half. Low readings indicate greater potency, high ones weaker potency.
